This is an account of results in publication PMC5581131, “The novel sphingosine-1-phosphate receptors antagonist AD2900 affects lymphocyte activation and inhibits T-cell entry into the lymph nodes” (Oncotarget, 2017).

One experiment concerns H9. Put plainly: XTT viability assay, H9. In kind it is cell-based, human. The settings on record: 1-day treatment, compared with Jurkat (>10 μM). On the procedure: Figure 1 AD2900 inhibits human lymphocyte proliferation in allogeneic activation (A, B) The levels of proliferative response of human peripheral blood lymphocytes (PBMCs) after 1-day pretreatment with different concentrations of AD2900, AD2750, YZ138, YZ158, and YZ297 (A) or AD2900, FTY720, and SEW2871 (B) were tested by human allogeneic mixed lymphocyte reaction (MLR) assay, followed by a [3H] thymidine incorporation analysis. (C) Apoptosis of AD2900-treated activated PBMCs was tested by AnnexinV-propidium iodide (PI) FACS analysis following 1-day AD2900 pretreatment and MLR. All the samples were compared to the untreated PBMC control. (D) IFN-γ secretion from activated PBMCs was tested by ELISA following a 1-day AD2900 pretreatment in MLR. On the 5th day of hMLR, supernatants were collected and assayed for the level of IFN-γ. (E) Jurkat cell viability after a 1-day treatment with different concentrations of AD2900, FTY720, and SEW2871 was tested by XTT viability assay. (F) H9, CEM/C1, and Molt4 cell viability after a 1-day treatment with different concentrations of AD2900 was tested by XTT viability assay. Graphs summarize the results of at least three independent experiments. Results of Student’s t-test: *(P < 0.05, two-tailed test), ** (P < 0.01, two-tailed test), *** (P < 0.001, two-tailed test), **** (P < 0.0001, two-tailed test). […]
In general terms: Tetrazolium assays rely on reduction of a dye to a coloured formazan, in cell work by metabolically active cells.

The target of a further experiment is T1, S1P5 (Homo sapiens, UniProt Q9H228).
T1 construct: Tango fusion partner (protease site + GAL4-VP16 transcription factor); expressed in transfected cells; host or cells: Tango S1P5-bla U-2 OS cells
The experiment can be described thus: S1P5 agonist test, Tango S1P5-bla U-2 OS cells. Type of experiment: cell-based. The settings on record: S1P5 TANGO U-2 OS cell line. As to the method: (§1) Since AD2900 is a sphingolipid analogue with properties that resemble those of S1P, we intended to examine its ability to interact with the S1P receptors. To delineate whether AD2900 can function as an agonistic or antagonistic compound to any of the S1P receptors, we used a high-throughput screening cell-based assay, employing cell lines stably transfected with human S1P receptors 1, 2, 3, 4, or 5 [37]. In this experiment, a compound with an IC50 or EC50 value ≤10 μM for a certain S1P receptor is considered active as an antagonist or an agonist, respectively. The results illustrate that AD2900 acts as an antagonist to all S1P receptors (Table 1, Supplementary Figure 3). […] No agonist activation was evident.
(§2) The S1P1 agonist test and S1P2, S1P3, S1P4, and S1P5 agonist and antagonist tests were conducted as previously described using S1P1 CRE-bla CHO cells, S1P2 CRE-bla CHO cells, S1P3 NFAT-bla CHO cells, Tango™ S1P4 (EDG6)-bla U-2 OS cells, and Tango™ S1P5 ([…])-bla U-2 OS cells. The S1P1 antagonist assay was carried out according to the manufacturer’s instructions using a Tango™ S1P1 (EDG1)-bla U-2 OS Cell-Based Assay (Invitrogen, NY, USA).

Another experiment relates to human PBMCs. Put plainly: Human allogeneic mixed lymphocyte reaction (MLR), [3H] thymidine incorporation, 1-day pretreatment. In kind it is cell-based. As to the method:
To select an analogue with potential anti-inflammatory activity, the effects of six of our unique synthetic sphingolipid analogues (all chemical structures can be found in Supplementary Figure 1A) on human immune cell activation were examined. Human PBMCs were cultured with the compounds for 1 day at different concentrations. The cells were then activated by PBMCs from a different donor in a mixed lymphocyte reaction (MLR) experiment. […] The amine derivative, AD2900, is substituted with amino diols. Structurally, AD2900 has a hydroxymethyl group on carbon 2 and no phenyl substitution. These characteristics cause AD2900 to be more hydrophilic than other analogues. In addition, previous studies have shown that AD2900 has a higher lethal dose 50% (LD50), which is above 100 mg/kg, and it is stable at room temperature for at least 2 years (unpublished data). Based on these characteristics, AD2900 was selected for further investigation. […]
Human PBLs were collected from human whole blood collected from healthy donors. […] For the thymidine incorporation assay, after 4 days of co-culture, cells were pulsed with ^3H-thymidine at 1 μCi (0.037MBq) per well (PerkinElmer, MA, USA) for 16 additional hours and then harvested onto glass-fiber filters. ^3H-thymidine incorporation was measured using Top Count. […]

The target in another experiment is T2, S1P3 (Homo sapiens, UniProt Q99500).
T2 construct: expressed in transfected cells; host or cells: S1P3 NFAT-bla CHO cells
Put plainly: S1P3 agonist test, S1P3 NFAT-bla CHO cells. Type of experiment: cell-based. The settings on record: S1P3 NFAT-BLA CHO cell line. On the procedure:
as §1, §2

Structures are written as SMILES.

T1 sequence (Q9H228 whole entry, the tested form may be a part): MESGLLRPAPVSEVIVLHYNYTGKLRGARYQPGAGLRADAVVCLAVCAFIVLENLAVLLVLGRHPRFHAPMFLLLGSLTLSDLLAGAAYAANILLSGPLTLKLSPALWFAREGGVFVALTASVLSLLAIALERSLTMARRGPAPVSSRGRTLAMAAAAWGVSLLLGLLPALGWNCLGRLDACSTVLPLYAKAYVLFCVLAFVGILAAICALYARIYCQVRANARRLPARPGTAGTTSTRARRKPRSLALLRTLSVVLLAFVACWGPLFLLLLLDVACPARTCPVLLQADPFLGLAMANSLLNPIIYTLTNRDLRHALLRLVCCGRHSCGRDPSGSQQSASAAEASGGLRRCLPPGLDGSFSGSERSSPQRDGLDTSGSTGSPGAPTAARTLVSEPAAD
T2 sequence (Q99500 whole entry): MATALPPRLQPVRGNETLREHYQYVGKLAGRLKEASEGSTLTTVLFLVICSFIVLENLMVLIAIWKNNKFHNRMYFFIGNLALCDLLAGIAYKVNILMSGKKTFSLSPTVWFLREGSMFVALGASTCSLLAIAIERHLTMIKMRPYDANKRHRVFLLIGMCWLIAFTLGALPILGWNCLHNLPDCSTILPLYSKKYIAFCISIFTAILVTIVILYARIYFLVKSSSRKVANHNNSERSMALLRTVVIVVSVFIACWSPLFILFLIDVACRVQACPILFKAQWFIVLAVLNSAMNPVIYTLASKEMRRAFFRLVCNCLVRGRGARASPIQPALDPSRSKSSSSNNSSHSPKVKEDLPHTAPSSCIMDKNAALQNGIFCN

Take `CCCCCCCCCCCCCCCCNC(CO)(CO)CO` [AD2900]: in the experiment with H9, the “cell viability, H9” value is listed as “reduced cell viability could be detected even at lower concentrations”. In addition, the EC50 at S1P5 and on S1P3 was over 50 µM throughout. Besides, the “inhibitory effect on lymphocyte activation compared to FTY720 and SEW2817” value in the experiment with human PBMCs (1-day pretreatment prior to MLR, concentrations of 6–20 μM) was “compromised effect in comparison to FTY720 but a higher inhibitory effect than that with SEW2817”. In addition, the “inhibition of PBMC proliferation” value in the experiment with human PBMCs (1-day pretreatment, MLR, mean of up to, at the highest concentration) is listed as 76% ± 4%.
